A short description of data set [1]: pharmacokinetics after a single intravenous dose in cynomolgus monkey. The conditions noted are these: in vivo, 2.5 mg/kg.
Data set [2] relates to neointimal formation in porcine coronary arteries containing stents. Put plainly: porcine coronary stent model, histomorphometry at 28 days. The data set is classed as in vivo. An excerpt:
The control stents are polymer-coated without drugs. This is important, for the polymer itself must not stimulate neointimal hyperplasia to a substantial degree. As the eluted drug disappears, an inflammatory response to the polymer could conceivably result in a late “catch-up phenomenon” where the restenosis process is not stopped, but instead slowed. This phenomenon would result in restenosis at late dates in human subjects.
Stems were implanted in two blood vessels in each pig. Pigs used in this model were generally 2-4 months old and weighed 30-40 kg. Two coronary stents were thus implanted in each pig by visually assessing a “normal” stent:artery ratio of 1.1-1.2.
Beginning on the day of the procedure, pigs were given oral aspirin (325 mg daily) and continued for the remainder of their course. General anesthesia was achieved by means of intramuscular injection followed by intravenous ketamine (30 mg/kg) and xylazine (3 mg/kg). Additional medication at the time of induction included atropine (1 mg) and flocillin (1 g) administered intramuscularly. During the stenting procedure, an intraarterial bolus of 10,000 units of heparin was administered.
Arterial access was obtained by cutdown on the right external carotid and placement of an 8F sheath. After the procedure, the animals were maintained on a normal diet without cholesterol or other special supplementation.
The BiodivYsio stent was used with nominal vessel target size of 3.0 mm. Two coronary arteries per pig were assigned at random to deployment of the stents. The stent was either a drug eluting stent (polymer plus drug stent) or a stent coated with a polymer only (polymer only stent). The stents were delivered by means of standard guide catheters and wires. The stent balloons were inflated to appropriate sizes for less than 30 seconds.
Each pig had one polymer only stent and one polymer plus drug stent placed in separate coronary arteries, so that each pig would have one stent for drug and one for control. A sample size of 20 pigs total was chosen to detect a projected difference in neointimal thickness of 0.2 mm with a standard deviation of 0.15 mm, at a power of 0.95 and […] 0.02.
Animals were euthanized at 28 days for histopathologic examination and quantification. Following removal of the heart from the perfusion pump system, the left atrial appendage was removed for access to the proximal coronary arteries. Coronary arterial segments with injuries were dissected free of the epicardium. Segments containing lesions were isolated, thereby allowing sufficient tissue to contain uninvolved blood vessel at either end. […]
The severity of vessel injury and the neointimal response were measured by calibrated digital microscopy. […]

Data set [3] in a line: release of drug from PC polymer-coated 316 L stainless steel coupons. The class given is physicochemical. The conditions noted are these: PC polymer-coated 316 L coupon. From the text:
Rubber septa from lids from HPLC vials were removed from the vials and placed into glass vials so that the “Teflon” side faced up. These septa served as supports for the test samples. The test samples were 316 L, stainless steel coupons that had been previously coated with a biocompatible polymer containing phosphorylcholine side groups (PC polymer). Coronary stents are commonly made of 316 L stainless steel and can be coated with the PC polymer to provide a depot site for loading drugs. The coated coupons, which serve to simulate stents, were placed onto the septa. By using a glass Hamilton Syringe, a solution of A-179578 and ethanol (10 μl) was applied to the surface of each coupon. The solution contained A-179578 (30.6 mg) dissolved in 100% ethanol (3.0 ml). The syringe was cleaned with ethanol between each application. The cap to the glass vial was placed on the vial loosely, thereby assuring proper ventilation. The coupon was allowed to dry for a minimum of 1.5 hours. Twelve (12) coupons were loaded in this way, six being used to determine the average amount of drug loaded onto the device and six being used to measure the time needed to release the drug from the devices.
The coupon was placed onto a 5210 Branson sonicator for one hour. The coupon was then removed from the solution, and the solution was assayed by HPLC.
The time release studies were performed by immersing and removing the individual coupons from fresh aliquots (10.0 ml) of 0.01 M phosphate buffer at a pH of 6.0 at each of the following time intervals; 5, 15, 30 and 60 minutes. For the remaining time points of 120, 180, 240, 300, 360 minutes, volumes of 5.0 ml of buffer were used. To facilitate mixing during the drug release phase, the samples were placed onto a Eberbach shaker set at low speed. All solution aliquots were assayed by HPLC after the testing of the last sample was completed.
The HPLC analysis was performed with a Hewlett Packard series 1100 instrument having the following settings: Injection Volume is 100 μl; Acquisition Time is 40 minutes; Flow Rate is 1.0 ml/min; Column Temperature is 40 degrees Celsius; Wavelength is 278 nm; Mobile Phase is 65% Acetonitrile/35% H20; and Column is YMC ODS-A S5 μm, 4.6×250 mm (Part No. Al2052546WT).

Data set [4] concerns neointima formation in the coronary arteries of adult miniature swine. Put plainly: swine safety and efficacy study of drug dosages on in-stent neointima formation. The data set is classed as in vivo, Yucatan miniature swine. The method, then:
The purpose of this example was to evaluate the safety and efficacy of different drug dosages on neointima formation. Drug was delivered from the BiodivYsio OC stent (15 mm) coated with AST-578. In-stent neointima formation was measured at […]; 3 days, 1 month, and 3 months in the coronary arteries of adult miniature swine. Forty (40) animals were studied at each time interval (10 animals per dose). Each animal received one drug-coated stent and one control stent. The control stent contained no drug.
Potential local tissue toxicity was assessed at all time intervals by examining histopathologic changes in the stented region, adjacent coronary segments, perivascular tissue, and subserved myocardium. The mortality, angiographic implant and restudy data, histomorphometry data, and stent site histopathology were studied.

Data set [5] is described as follows: loading and release of drug from 15 mm BiodivYsio drug delivery stents. The data set is classed as physicochemical. The conditions noted are these: 15 mm BiodivYsio stent. The method, then:
Twelve individual polymer-coated stents were placed on fixtures designed to hold the stent in a vertical position and the stents were immersed vertically in the drug solution for five minutes. The stents and fixtures were removed from the vials and excess drug solution was blotted away by contacting the stents with an absorbant material. The stents were then allowed to dry in air for 30 minutes in an inverted vertical position.
The stents were removed from the fixtures, and each stent was placed into 50/50 acetonitrile/phosphate buffer (pH 5.1, 2.0 ml) and sonicated for one hour. The stems were removed from the solution and solutions were assayed for concentration of drug, which allowed calculation of the amount of drug originally on the stents. This method was independently shown to remove at least 95% of the drug from the stent coating. On average, the stents contained 60 micrograms of drug±20 micrograms.
The drug-loaded stents were placed on the fixtures and placed into 0.01 M phosphate buffer (pH=6.0, 1.9 ml) in individual vials. These samples were placed onto an Eberbach shaker set at low speed to provide back-and-forth agitation. To avoid approaching drug saturation in the buffer, the stents were transferred periodically to fresh buffer vials at the following points: 15, 30, 45, 60, 120, 135, 150, 165, 180, 240, 390 minutes. The dissolution buffer vials were assayed by HPLC for the drug concentration at the end of the drug release period studied. The data, represented as % cumulative release of the drug as a function of time, is shown in tabular form below: […]

Setting [6] is: porcine coronary arteries, 28 days.

Entries after “also recorded” stand apart in the source; their conditions may differ.

As a reminder, the AUC is the area under the concentration-time curve, a measure of exposure. With `COC1CC2CCC(C)C(O)(O2)C(=O)C(=O)N2CCCCC2C(=O)OC(C(C)CC2CCC(n3ccc(=O)cc3)C(OC)C2)CC(=O)C(C)C=C(C)C(O)C(OC)C(=O)C(C)CC(C)C=CC=CC=C1C` (stereo not drawn) [Example 4-pyridone, 40-epi-N-[4′-pyridone]-rapamycin], the AUC in data set [1] was 5.59 µg·h/mL.
Take `COC1CC2CCC(C)C(O)(O2)C(=O)C(=O)N2CCCCC2C(=O)OC(C(C)CC2CCC(n3cnnn3)C(OC)C2)CC(=O)C(C)C=C(C)C(O)C(OC)C(=O)C(C)CC(C)C=CC=CC=C1C` (centres unmarked) [ABT-578, 42-(1-tetrazolyl)-rapamycin]: the “lumen area vs polymer only stent” value in data set [2] (setting [6]) is given as “greater lumen area”. Further, in data set [2] (setting [6]), the “neointimal area vs polymer only stent” value is recorded as “lower neointimal area”. The “neointimal thickness vs polymer only stent” value in data set [2] (setting [6]) is “lower neointimal thickness”. The “neointimal hyperplasia” value in data set [2] (stent with polymer in porcine coronary artery) is listed as “reduction in neointimal hyperplasia”. In addition, the “Percent Release” value in data set [3] (0.01 M phosphate buffer pH 6.0, 0.00 min) is recorded as 0.00%; in data set [3] (0.01 M phosphate buffer pH 6.0, 5.00 min), 1.87%; in data set [3] (0.01 M phosphate buffer pH 6.0, 15.00 min), 2.97%; in data set [3] (0.01 M phosphate buffer pH 6.0, 30.00 min) it was 3.24%; in data set [3] (0.01 M phosphate buffer pH 6.0, 60.00 min) it was 3.29%; in data set [3] (0.01 M phosphate buffer pH 6.0, 180.00 min) it was 4.36%. The “Percent Release” value in data set [3] (0.01 M phosphate buffer pH 6.0, 240.00 min) is given as 4.37%; in data set [3] (0.01 M phosphate buffer pH 6.0, 300.00 min) it was 6.34%; in data set [3] (0.01 M phosphate buffer pH 6.0, 360.00 min), 7.88%.
On to `CO[C@H]1C[C@@H]2CC[C@@H](C)[C@@](O)(O2)C(=O)C(=O)N2CCCC[C@H]2C(=O)O[C@H]([C@H](C)C[C@@H]2CC[C@H](n3cnnn3)[C@H](OC)C2)CC(=O)[C@H](C)/C=C(\C)[C@@H](O)[C@@H](OC)C(=O)[C@H](C)C[C@H](C)/C=C/C=C/C=C/1C` [ABT-578, 42-(1-tetrazolyl)-rapamycin], for which the “local coronary arterial wall toxicity: medial necrosis or stent malapposition” value in data set [4] (any dose group up to approximately 27 μg/mm stent length, any time interval) is on record as “no local coronary arterial wall toxicity”. Further, the “histologic % stenosis vs control” value in data set [4] (one month, dose group 3) was “tendency towards decreased”. Further, the “absolute intima area vs control” value in data set [4] (one month, dose groups 3 and 4) is recorded as “trends for decreases”. For the same compound, in data set [4] (one month, dose groups 3 and 4), the “intima thickness vs control” value is “trends for decreases”. For the same compound, the “Intima area normalized to injury score vs control” value in data set [4] (one month, dose groups 3 and 4 (10 and 27 μg/mm)) is reported as “significantly decreased”. Moreover, the “neointima formation in stented coronary arteries” value in data set [4] (one month, locally eluted from stent) is “significant inhibitory effect; also recorded: reduced in-stent neointima formation”. For the same compound, in data set [4] (three days after implant, all dosages, scanning electron microscopy), the “extent of endothelial recovery over the stent struts” value is “did not appear retarded”. In addition, in data set [4] (three months), the “persistent inhibitory effect on neointima” value is given as “weak tendency”. Moreover, the “% Cumulative Release of Drug” value in data set [5] (0.01 M phosphate buffer pH 6.0, 15 min) turned out to be 0.3%; in data set [5] (0.01 M phosphate buffer pH 6.0, 30 min) it was 1.1%; in data set [5] (0.01 M phosphate buffer pH 6.0, 45 min), 2.1%; in data set [5] (0.01 M phosphate buffer pH 6.0, 60 min), 3.2%; in data set [5] (0.01 M phosphate buffer pH 6.0, 120 min), 4.3%; in data set [5] (0.01 M phosphate buffer pH 6.0, 135 min), 5.9%. For the same compound, the “% Cumulative Release of Drug” value in data set [5] (0.01 M phosphate buffer pH 6.0, 150 min) is 6.3%; in data set [5] (0.01 M phosphate buffer pH 6.0, 165 min), 6.8%; in data set [5] (0.01 M phosphate buffer pH 6.0, 180 min) it was 7.4%.
“40-epi-N-[2′-pyridone]-rapamycin [Example 2-pyridone]”: the AUC in data set [1] was determined as 2.55 µg·h/mL.

(Values after patent US8034926B2 (Abbott Laboratories, priority 2007, dated 2011).)
